Experimental data published in patent US7799809B2, “Carboxamide compounds and their use as calpain inhibitors” (Abbott GmbH & Co. KG, priority 2006, dated 2010).

Experiments:
Format in all cases: biochemical
cathepsin B = biological target: T1, cathepsin B (Homo sapiens, UniProt P07858); assay: Cathepsin B enzyme inhibition in vitro (kinetic fluorescence assay); conditions: cathepsin B isolated from human liver vs calpain I
T1 construct: cathepsin B—isolated from human liver (Calbiochem #219362); purchased Calbiochem 219362; host or cells: human liver (tissue-derived)
In short: (§1)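 Inhibition is measured at room temperature in cysteine-containing MES buffer, pH 6.0, by continuous fluorescence at 460 nm. Cathepsin S (0.5 nM) uses 20 μM Z-Val-Val-Arg-AMC; L (1 nM) and B (0.25 nM) use Z-Phe-Arg-AMC at 2 and 100 μM respectively.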

cathepsin K = biological target: T2, cathepsin K (Homo sapiens, UniProt P43235); assay: Cathepsin K enzyme inhibition in vitro (kinetic fluorescence assay); conditions: cathepsin K activated from recombinant human procathepsin K vs calpain I
T2 construct: purchased Calbiochem 342001; host or cells: E. coli
T2 sequence (P43235 115-329): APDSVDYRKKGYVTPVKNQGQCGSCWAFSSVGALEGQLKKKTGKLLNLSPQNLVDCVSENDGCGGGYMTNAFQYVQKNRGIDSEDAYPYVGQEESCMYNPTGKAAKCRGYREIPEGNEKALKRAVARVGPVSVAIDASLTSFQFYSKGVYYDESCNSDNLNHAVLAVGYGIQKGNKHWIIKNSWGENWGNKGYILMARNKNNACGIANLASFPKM

cathepsin L = biological target: T3, cathepsin L (Homo sapiens, UniProt P07711); assay: Cathepsin L enzyme inhibition in vitro (kinetic fluorescence assay); conditions: cathepsin L isolated from human liver vs calpain I
T3 construct: cathepsin L—isolated from human liver (Calbiochem #219402); purchased Calbiochem 219402; host or cells: human liver (tissue-derived)
T3 sequence (P07711 114-333): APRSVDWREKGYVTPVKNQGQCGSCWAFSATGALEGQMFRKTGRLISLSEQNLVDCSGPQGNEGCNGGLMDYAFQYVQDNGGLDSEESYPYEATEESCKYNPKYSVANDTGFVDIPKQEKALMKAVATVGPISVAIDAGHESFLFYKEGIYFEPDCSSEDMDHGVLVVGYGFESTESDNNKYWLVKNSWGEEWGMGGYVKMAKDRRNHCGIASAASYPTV
In short: as §1

cathepsin S = biological target: T4, cathepsin S (Homo sapiens, UniProt P25774); assay: Cathepsin S enzyme inhibition in vitro (kinetic fluorescence assay); conditions: recombinant human cathepsin S vs calpain I
T4 construct: purchased Calbiochem 219343; host or cells: E. coli
T4 sequence (P25774 115-331): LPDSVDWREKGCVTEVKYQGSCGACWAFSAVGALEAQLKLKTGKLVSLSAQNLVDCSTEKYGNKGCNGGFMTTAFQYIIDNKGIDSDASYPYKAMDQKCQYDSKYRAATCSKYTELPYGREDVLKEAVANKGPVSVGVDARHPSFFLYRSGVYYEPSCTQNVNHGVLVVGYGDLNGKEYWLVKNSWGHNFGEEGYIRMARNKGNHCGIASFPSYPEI
In short: as §1

COc1ccc(CC(NC(=O)c2cccnc2-n2ccc(-c3ccc4c(c3)OC(F)(F)O4)n2)C(=O)C(N)=O)cc1 (stereo not drawn) [Example 137, N-(3-Amino-1-{[4-(methyloxy)phenyl]methyl}-2,3-dioxopropyl)-2-[3-(2,2-difluoro-1,3-benzodioxol-5-yl)-1H-pyrazol-1-yl]pyridine-3-carboxamide]
Sel cat. B: Ki(cathepsin B)/Ki(calpain) ratio (cathepsin B): + (+ means 10≦Ki(cathepsin B)/Ki(calpain)<30) | Sel cat. K: Ki(cathepsin K)/Ki(calpain) ratio (cathepsin K): + (+ means 10≦Ki(cathepsin K)/Ki(calpain)<30) | Sel cat. L: Ki(cathepsin L)/Ki(calpain) ratio (cathepsin L): ++ (++ means a Ki(cathepsin L)/Ki(calpain) ratio of ≧50) | Sel cat. S: Ki(cathepsin S)/Ki(calpain) ratio (cathepsin S): ++ (++ means a Ki(cathepsin S)/Ki(calpain) ratio of ≧100)

COc1cc(Cl)ccc1-c1ccn(-c2ncccc2C(=O)NC(Cc2ccccc2)C(=O)C(N)=O)n1 (stereo not drawn) [Example 139, N-[3-Amino-2,3-dioxo-1-(phenylmethyl)propyl]-2-{3-[4-chloro-2-(methyloxy)phenyl]-1H-pyrazol-1-yl}pyridine-3-carboxamide]
Sel cat. B: Ki(cathepsin B)/Ki(calpain) ratio (cathepsin B): + (+ means 10≦Ki(cathepsin B)/Ki(calpain)<30) | Sel cat. K: Ki(cathepsin K)/Ki(calpain) ratio (cathepsin K): ++ (++ means a Ki(cathepsin K)/Ki(calpain) ratio of ≧30) | Sel cat. L: Ki(cathepsin L)/Ki(calpain) ratio (cathepsin L): ++ (++ means a Ki(cathepsin L)/Ki(calpain) ratio of ≧50) | Sel cat. S: Ki(cathepsin S)/Ki(calpain) ratio (cathepsin S): ++ (++ means a Ki(cathepsin S)/Ki(calpain) ratio of ≧100)

NC(=O)C(=O)C(Cc1ccccc1)NC(=O)c1cccnc1-n1cc2c(n1)-c1cc(Cl)ccc1OC2 (stereo not drawn) [Example 140, N-[3-Amino-2,3-dioxo-1-(phenylmethyl)propyl]-2-(8-chlorochromeno[4,3-c]pyrazol-2(4H)-yl)pyridine-3-carboxamide]
Sel cat. B: Ki(cathepsin B)/Ki(calpain) ratio (cathepsin B): + (+ means 10≦Ki(cathepsin B)/Ki(calpain)<30) | Sel cat. K: Ki(cathepsin K)/Ki(calpain) ratio (cathepsin K): ++ (++ means a Ki(cathepsin K)/Ki(calpain) ratio of ≧30) | Sel cat. L: Ki(cathepsin L)/Ki(calpain) ratio (cathepsin L): ++ (++ means a Ki(cathepsin L)/Ki(calpain) ratio of ≧50) | Sel cat. S: Ki(cathepsin S)/Ki(calpain) ratio (cathepsin S): ++ (++ means a Ki(cathepsin S)/Ki(calpain) ratio of ≧100)

COc1ccc2c(c1)OCc1cn(-c3ncccc3C(=O)NC(Cc3ccccc3)C(=O)C(N)=O)nc1-2 (stereo not drawn) [Example 142, N-[3-Amino-2,3-dioxo-1-(phenylmethyl)propyl]-2-[7-(methyloxy)chromeno[4,3-c]pyrazol-2(4H)-yl]pyridine-3-carboxamide]
Sel cat. B: Ki(cathepsin B)/Ki(calpain) ratio (cathepsin B): + (+ means 10≦Ki(cathepsin B)/Ki(calpain)<30) | Sel cat. K: Ki(cathepsin K)/Ki(calpain) ratio (cathepsin K): + (+ means 10≦Ki(cathepsin K)/Ki(calpain)<30) | Sel cat. L: Ki(cathepsin L)/Ki(calpain) ratio (cathepsin L): ++ (++ means a Ki(cathepsin L)/Ki(calpain) ratio of ≧50) | Sel cat. S: Ki(cathepsin S)/Ki(calpain) ratio (cathepsin S): ++ (++ means a Ki(cathepsin S)/Ki(calpain) ratio of ≧100)

Cc1c(Cl)ccc2c1-c1nn(-c3ncccc3C(=O)NC(Cc3ccccc3)C(=O)C(N)=O)cc1CO2 (stereo not drawn) [Example 143, N-[3-Amino-2,3-dioxo-1-(phenylmethyl)propyl]-2-(8-chloro-9-methylchromeno[4,3-c]pyrazol-2(4H)-yl)pyridine-3-carboxamide]
Sel cat. B: Ki(cathepsin B)/Ki(calpain) ratio (cathepsin B): ++ (++ means a Ki(cathepsin B)/Ki(calpain) ratio of ≧30) | Sel cat. K: Ki(cathepsin K)/Ki(calpain) ratio (cathepsin K): ++ (++ means a Ki(cathepsin K)/Ki(calpain) ratio of ≧30) | Sel cat. L: Ki(cathepsin L)/Ki(calpain) ratio (cathepsin L): ++ (++ means a Ki(cathepsin L)/Ki(calpain) ratio of ≧50) | Sel cat. S: Ki(cathepsin S)/Ki(calpain) ratio (cathepsin S): ++ (++ means a Ki(cathepsin S)/Ki(calpain) ratio of ≧100)

NC(=O)C(=O)C(Cc1ccc(F)cc1)NC(=O)c1cccnc1-n1ccc(-c2ccccc2OC(F)(F)F)n1 (stereo not drawn) [Example 152, N-{3-Amino-1-[(4-fluorophenyl)methyl]-2,3-dioxopropyl}-2-(3-{2-[(trifluoromethyl)oxy]phenyl}-1H-pyrazol-1-yl)pyridine-3-carboxamide]
Sel cat. B: Ki(cathepsin B)/Ki(calpain) ratio (cathepsin B): ++ (++ means a Ki(cathepsin B)/Ki(calpain) ratio of ≧30) | Sel cat. K: Ki(cathepsin K)/Ki(calpain) ratio (cathepsin K): ++ (++ means a Ki(cathepsin K)/Ki(calpain) ratio of ≧30) | Sel cat. L: Ki(cathepsin L)/Ki(calpain) ratio (cathepsin L): ++ (++ means a Ki(cathepsin L)/Ki(calpain) ratio of ≧50) | Sel cat. S: Ki(cathepsin S)/Ki(calpain) ratio (cathepsin S): ++ (++ means a Ki(cathepsin S)/Ki(calpain) ratio of ≧100)

COc1ccc(CC(NC(=O)c2cccnc2-n2ccc(-c3cccc(Cl)c3Cl)n2)C(=O)C(N)=O)cc1 (stereo not drawn) [Example 153, N-(3-Aamino-1-{[4-(methyloxy)phenyl]methyl}-2,3-dioxopropyl)-2-[3-(2,3-dichlorophenyl)-1H-pyrazol-1-yl]pyridine-3-carboxamide]
Sel cat. B: Ki(cathepsin B)/Ki(calpain) ratio (cathepsin B): ++ (++ means a Ki(cathepsin B)/Ki(calpain) ratio of ≧30) | Sel cat. K: Ki(cathepsin K)/Ki(calpain) ratio (cathepsin K): ++ (++ means a Ki(cathepsin K)/Ki(calpain) ratio of ≧30) | Sel cat. L: Ki(cathepsin L)/Ki(calpain) ratio (cathepsin L): ++ (++ means a Ki(cathepsin L)/Ki(calpain) ratio of ≧50) | Sel cat. S: Ki(cathepsin S)/Ki(calpain) ratio (cathepsin S): ++ (++ means a Ki(cathepsin S)/Ki(calpain) ratio of ≧100)

NC(=O)C(=O)C(Cc1ccccc1)NC(=O)c1cccnc1-n1ccc(-c2cccc(C(F)(F)F)c2Cl)n1 (stereo not drawn) [Example 155, N-[3-Amino-2,3-dioxo-1-(phenylmethyl)propyl]-2-{3-[2-chloro-3-(trifluoromethyl)phenyl]-1H-pyrazol-1-yl}pyridine-3-carboxamide]
Sel cat. B: Ki(cathepsin B)/Ki(calpain) ratio (cathepsin B): ++ (++ means a Ki(cathepsin B)/Ki(calpain) ratio of ≧30) | Sel cat. K: Ki(cathepsin K)/Ki(calpain) ratio (cathepsin K): ++ (++ means a Ki(cathepsin K)/Ki(calpain) ratio of ≧30) | Sel cat. L: Ki(cathepsin L)/Ki(calpain) ratio (cathepsin L): ++ (++ means a Ki(cathepsin L)/Ki(calpain) ratio of ≧50) | Sel cat. S: Ki(cathepsin S)/Ki(calpain) ratio (cathepsin S): ++ (++ means a Ki(cathepsin S)/Ki(calpain) ratio of ≧100)

COc1ccc(CC(NC(=O)c2cccnc2-n2ccc(-c3cccc(F)c3Cl)n2)C(=O)C(N)=O)cc1 (stereo not drawn) [Example 157, N-(3-Amino-1-{[4-(methyloxy)phenyl]methyl}-2,3-dioxopropyl)-2-[3-(2-chloro-3-fluorophenyl)-1H-pyrazol-1-yl]pyridine-3-carboxamide]
Sel cat. B: Ki(cathepsin B)/Ki(calpain) ratio (cathepsin B): ++ (++ means a Ki(cathepsin B)/Ki(calpain) ratio of ≧30) | Sel cat. K: Ki(cathepsin K)/Ki(calpain) ratio (cathepsin K): ++ (++ means a Ki(cathepsin K)/Ki(calpain) ratio of ≧30) | Sel cat. L: Ki(cathepsin L)/Ki(calpain) ratio (cathepsin L): ++ (++ means a Ki(cathepsin L)/Ki(calpain) ratio of ≧50) | Sel cat. S: Ki(cathepsin S)/Ki(calpain) ratio (cathepsin S): ++ (++ means a Ki(cathepsin S)/Ki(calpain) ratio of ≧100)

CS(=O)(=O)Nc1cnc(-n2ccc(-c3ccccc3)n2)c(C(=O)NC(Cc2ccccc2)C(=O)C(N)=O)c1 (stereo not drawn) [Example 158, N-[3-Amino-2,3-dioxo-1-(phenylmethyl)propyl]-5-[(methylsulfonyl)amino]-2-(3-phenyl-1H-pyrazol-1-yl)pyridine-3-carboxamide]
Sel cat. B: Ki(cathepsin B)/Ki(calpain) ratio (cathepsin B): ++ (++ means a Ki(cathepsin B)/Ki(calpain) ratio of ≧30) | Sel cat. K: Ki(cathepsin K)/Ki(calpain) ratio (cathepsin K): ++ (++ means a Ki(cathepsin K)/Ki(calpain) ratio of ≧30) | Sel cat. L: Ki(cathepsin L)/Ki(calpain) ratio (cathepsin L): ++ (++ means a Ki(cathepsin L)/Ki(calpain) ratio of ≧50) | Sel cat. S: Ki(cathepsin S)/Ki(calpain) ratio (cathepsin S): ++ (++ means a Ki(cathepsin S)/Ki(calpain) ratio of ≧100)

NC(=O)C(=O)C(Cc1ccccc1)NC(=O)c1cccnc1-n1ccc(-c2cccc3cccnc23)n1 (stereo not drawn) [Example 160, N-[3-amino-2,3-dioxo-1-(phenylmethyl)propyl]-2-(3-quinolin-8-yl-1H-pyrazol-1-yl)pyridine-3-carboxamide]
Sel cat. B: Ki(cathepsin B)/Ki(calpain) ratio (cathepsin B): ++ (++ means a Ki(cathepsin B)/Ki(calpain) ratio of ≧30) | Sel cat. K: Ki(cathepsin K)/Ki(calpain) ratio (cathepsin K): ++ (++ means a Ki(cathepsin K)/Ki(calpain) ratio of ≧30) | Sel cat. L: Ki(cathepsin L)/Ki(calpain) ratio (cathepsin L): ++ (++ means a Ki(cathepsin L)/Ki(calpain) ratio of ≧50) | Sel cat. S: Ki(cathepsin S)/Ki(calpain) ratio (cathepsin S): ++ (++ means a Ki(cathepsin S)/Ki(calpain) ratio of ≧100)

NC(=O)C(=O)C(Cc1cccc(F)c1)NC(=O)c1cccnc1-n1ccc(-c2ccccc2OC(F)(F)F)n1 (stereo not drawn) [Example 162, N-{3-Amino-1-[(3-fluorophenyl)methyl]-2,3-dioxopropyl}-2-(3-{2-[(trifluoromethyl)oxy]phenyl}-1H-pyrazol-1-yl)pyridine-3-carboxamide]
Sel cat. B: Ki(cathepsin B)/Ki(calpain) ratio (cathepsin B): ++ (++ means a Ki(cathepsin B)/Ki(calpain) ratio of ≧30) | Sel cat. K: Ki(cathepsin K)/Ki(calpain) ratio (cathepsin K): ++ (++ means a Ki(cathepsin K)/Ki(calpain) ratio of ≧30) | Sel cat. L: Ki(cathepsin L)/Ki(calpain) ratio (cathepsin L): ++ (++ means a Ki(cathepsin L)/Ki(calpain) ratio of ≧50) | Sel cat. S: Ki(cathepsin S)/Ki(calpain) ratio (cathepsin S): ++ (++ means a Ki(cathepsin S)/Ki(calpain) ratio of ≧100)
